Test results reported in patent publication US5324502A, “Radiopharmaceuticals for imaging the heart” (priority 1992, dated 1994).
Read-outs that look alike come from different tables or passages of the source.

What was measured:
[1] = rat
Experimental: The gallium-67 complexes are prepared by ligand exchange from gallium-67 chloride, employing the tris(acetylacetonato)gallium(III) complex as an intermediate. The Ga-67 acetylacetonate in ethanol is reacted with the chelating ligand or ligand precursor at elevated temperature to form rapidly the desired gallium radiopharmaceutical. […] The biodistribution of several radiopharmaceuticals was determined in rats following intravenous injection using techniques previously described (M. A. Green, Nuclear Medicine and Biology 14:59-61, 1987; E. John and M. A. Green, J. Medicinal Chemistry, 33:1764-1770, 1990).
Under ether anesthesia, 1 to 3 μCi (0.1-0.2 mL) of no-carrier-added Ga-67 compound was administered by bolus injection into the femoral vein of male Sprague-Dawley rats. The ether anesthetized rats were sacrificed by decapitation at given time intervals post-injection, organs of interest were removed, weighed, and the gallium-67 activity counted. The biodistribution was calculated as a percentage of the injected dose per gram of tissue and percentage of injected dose per organ for each sample.

[2] = Octanol/water partition coefficient of radiolabeled gallium complexes; format: physicochemical
Experimental: Octanol/water partition coefficients were measured by vortex mixing 1 mL of 1-octanol and 1 mL of isotonic Tris buffer (pH 7.0) with a 1-5 μL sample of the radiolabeled gallium complex. Following centrifugation at >1200 g for 5 minutes, the octanol and aqueous phases were sampled and counted in an automatic well counter.

## [67Ga+3].[O-]c1ccccc1C=NCCCNCCNCCCN=Cc1ccccc1[O-] [Sal2 BAPEN, ^67 GaL^+ L = [bis(salicylaldimino)-N,N'-bis(3-aminopropyl)-ethylenediamine]]
[1]; in vivo, iv
  % injected dose in heart, 1 min: 0.45 ± 0.01 % injected dose
  % injected dose in heart, 2 h: 0.41 ± 0.03 % injected dose
[1]; in vivo, iv, 1 min
  % Injected Dose per Gram Tissue, Blood: 0.30 ± 0.01
  % Injected Dose per Gram Tissue, Brain: 0.02 ± 0.01
  % Injected Dose per Gram Tissue, Heart: 0.65 ± 0.02
  % Injected Dose per Gram Tissue, Kidney (one): 12.39 ± 0.55
  % Injected Dose per Gram Tissue, Liver: 3.27 ± 0.44
  % Injected Dose per Gram Tissue, Lungs: 0.85 ± 0.09
  % Injected Dose per Gram Tissue, Spleen: 0.27 ± 0.03
  Heart/Blood: 2.15 ± 0.05
[1]; in vivo, iv, 2 h
  % Injected Dose per Gram Tissue, Blood: 0.05 ± 0.01
  % Injected Dose per Gram Tissue, Brain: 0.01 ± 0.003
  % Injected Dose per Gram Tissue, Heart: 0.58 ± 0.05
  % Injected Dose per Gram Tissue, Kidney (one): 1.85 ± 0.30
  % Injected Dose per Gram Tissue, Liver: 0.64 ± 0.10
  % Injected Dose per Gram Tissue, Lungs: 0.24 ± 0.03
  % Injected Dose per Gram Tissue, Spleen: 0.11 ± 0.01
  Heart/Blood: 12.44 ± 0.42
[1]; in vivo, iv, […]
  % Injected Dose per Gram Tissue, Blood: 0.07 ± 0.01
  % Injected Dose per Gram Tissue, Brain: 0.01 ± 0.001
  % Injected Dose per Gram Tissue, Heart: 0.60 ± 0.03
  % Injected Dose per Gram Tissue, Kidney (one): 4.47 ± 0.62
  % Injected Dose per Gram Tissue, Liver: 1.20 ± 0.16
  % Injected Dose per Gram Tissue, Lungs: 0.29 ± 0.02
  % Injected Dose per Gram Tissue, Spleen: 0.11 ± 0.01
  Heart/Blood: 8.34 ± 0.66
[2]; octanol/tris buffer, pH 7
  log P: 0.56

## COc1cc([O-])c(C=NCCNCCNCCN=Cc2c([O-])cc(OC)cc2OC)c(OC)c1.[67Ga+3] [(4,6-MeO2 Sal)2 TETA, ^67 GaL^+ L = [bis(4,6-dimethoxysalicylaldimino)-N,N'-triethylene-tetraamine]]
[1]; i.v., 1 min
  % Injected Dose per Gram Tissue, Blood: 1.90 ± 0.56 % Injected Dose per Gram Tissu
  % Injected Dose per Gram Tissue, Brain: 0.05 ± 0.01 % Injected Dose per Gram Tissu
  % Injected Dose per Gram Tissue, Heart: 0.76 ± 0.04 % Injected Dose per Gram Tissu
  % Injected Dose per Gram Tissue, Kidney (one): 4.36 ± 0.27 % Injected Dose per Gram Tissu
  % Injected Dose per Gram Tissue, Liver: 1.88 ± 0.15 % Injected Dose per Gram Tissu
  % Injected Dose per Gram Tissue, Lungs: 0.97 ± 0.03 % Injected Dose per Gram Tissu
  % Injected Dose per Gram Tissue, Spleen: 0.35 ± 0.02 % Injected Dose per Gram Tissu
  % Injected Dose per Organ, Blood: 19.26 ± 2.97 % Injected Dose per Organ
  % Injected Dose per Organ, Brain: 0.07 ± 0.01 % Injected Dose per Organ
  % Injected Dose per Organ, Heart: 0.55 ± 0.04 % Injected Dose per Organ
  % Injected Dose per Organ, Kidney (one): 3.83 ± 0.31 % Injected Dose per Organ
  % Injected Dose per Organ, Liver: 16.90 ± 1.70 % Injected Dose per Organ
  % Injected Dose per Organ, Lungs: 1.17 ± 0.23 % Injected Dose per Organ
  % Injected Dose per Organ, Spleen: 0.22 ± 0.01 % Injected Dose per Organ
[1]; i.v., 1 min, preliminary studies
  % injected dose in heart, 1 min: 0.55 ± 0.04 % injected dose
[1]; i.v., 15 min
  % Injected Dose per Gram Tissue, Blood: 0.71 ± 0.08 % Injected Dose per Gram Tissu
  % Injected Dose per Gram Tissue, Brain: 0.03 ± 0.01 % Injected Dose per Gram Tissu
  % Injected Dose per Gram Tissue, Heart: 0.53 ± 0.06 % Injected Dose per Gram Tissu
  % Injected Dose per Gram Tissue, Kidney (one): 2.35 ± 0.41 % Injected Dose per Gram Tissu
  % Injected Dose per Gram Tissue, Liver: 2.42 ± 0.25 % Injected Dose per Gram Tissu
  % Injected Dose per Gram Tissue, Lungs: 0.51 ± 0.05 % Injected Dose per Gram Tissu
  % Injected Dose per Gram Tissue, Spleen: 0.18 ± 0.02 % Injected Dose per Gram Tissu
  % Injected Dose per Organ, Blood: 9.32 ± 1.38 % Injected Dose per Organ
  % Injected Dose per Organ, Brain: 0.04 ± 0.01 % Injected Dose per Organ
  % Injected Dose per Organ, Heart: 0.36 ± 0.03 % Injected Dose per Organ
  % Injected Dose per Organ, Kidney (one): 1.89 ± 0.40 % Injected Dose per Organ
  % Injected Dose per Organ, Liver: 20.33 ± 1.11 % Injected Dose per Organ
  % Injected Dose per Organ, Lungs: 0.50 ± 0.05 % Injected Dose per Organ
  % Injected Dose per Organ, Spleen: 0.11 ± 0.02 % Injected Dose per Organ
[1]; i.v., 120 min
  % Injected Dose per Gram Tissue, Blood: 0.03 ± 0.01 % Injected Dose per Gram Tissu
  % Injected Dose per Gram Tissue, Brain: 0.01 ± 0.01 % Injected Dose per Gram Tissu
  % Injected Dose per Gram Tissue, Heart: 0.28 ± 0.05 % Injected Dose per Gram Tissu
  % Injected Dose per Gram Tissue, Kidney (one): 0.51 ± 0.10 % Injected Dose per Gram Tissu
  % Injected Dose per Gram Tissue, Liver: 0.83 ± 0.15 % Injected Dose per Gram Tissu
  % Injected Dose per Gram Tissue, Lungs: 0.08 ± 0.02 % Injected Dose per Gram Tissu
  % Injected Dose per Gram Tissue, Spleen: 0.06 ± 0.01 % Injected Dose per Gram Tissu
  % Injected Dose per Organ, Blood: 0.34 ± 0.02 % Injected Dose per Organ
  % Injected Dose per Organ, Brain: 0.01 ± 0.01 % Injected Dose per Organ
  % Injected Dose per Organ, Heart: 0.19 ± 0.03 % Injected Dose per Organ
  % Injected Dose per Organ, Kidney (one): 0.42 ± 0.04 % Injected Dose per Organ
  % Injected Dose per Organ, Liver: 6.90 ± 1.07 % Injected Dose per Organ
  % Injected Dose per Organ, Lungs: 0.10 ± 0.01 % Injected Dose per Organ
  % Injected Dose per Organ, Spleen: 0.04 ± 0.01 % Injected Dose per Organ
[1]; i.v., 2 h, preliminary studies
  % injected dose in heart, 2 h: 0.19 ± 0.03 % injected dose
[1]; ratio, i.v., 1 min
  Heart/Blood: 0.53 ± 0.04
  Heart/Liver: 0.41 ± 0.04
  Heart/Lungs: 0.79 ± 0.05
[1]; ratio, i.v., 15 min
  Heart/Blood: 0.74 ± 0.03
  Heart/Liver: 0.22 ± 0.01
  Heart/Lungs: 1.03 ± 0.20
[1]; ratio, i.v., 120 min
  Heart/Blood: 10.29 ± 2.64
  Heart/Liver: 0.34 ± 0.05
  Heart/Lungs: 3.49 ± 0.37
[2]; 1-octanol / isotonic Tris buffer pH 7.0
  log P: 0.24
